Data: US11192894B2, “Cell impermeable coelenterazine analogues” (PROMEGA CORPORATION, priority 2016, dated 2021)

Experiments:
[1] = biological target: purified NANOLUC® Luciferase (Oplophorus gracilirostris, UniProt Q9GV45, A31E/A60N/A81I/F95D/I117V/K70R/L54V/L99Q/M102K/N193R/P142E/Q151K/Q38R/Q45L/V71I/Y165I); assay type: biochemical; details: relative value, furimazine set to 1; purified NanoLuc; initial light output three minutes after substrate addition
Procedure: Each compound to be screened was dissolved in DMSO (5 mM) and then further diluted to 100 uM in NANO-GLO® Luciferase Assay Buffer. Each diluted substrate was then combined in equal volumes with purified NANOLUC® Luciferase diluted into CO2 independent media+10% FBS. Initial light output for each substrate was measured in a GloMax®-Multi+ luminometer three minutes after substrate addition and then at five minute intervals as a means to determine signal half-life. […] Km was calculated using GraphPad Prism using non linear Michaelis-Menten regression.

NanoLuc:KDR = assay: Cell-based luciferase assay, HEK293 cells expressing NanoLuc:KDR (NanoLuc on the cell surface), ± extracellular inhibitor JRW-0344; details: 10 μM substrate ± 20 μM inhibitor, FIG. 2A
Procedure: (§1) FIGS. 2A-2D show extracellular bioluminescent activity of exemplary compounds in HEK293 cells. HEK293 cells were transfected with two different membrane bound NANOLUC® fusions: 1) NanoLuc:KDR, presenting NanoLuc on the outside of the membrane; 2) KDR:NanoLuc, presenting NanoLuc on the inside of the membrane. The cell impermeable NANOLUC® inhibitor JRW-0344 (disclosed in U.S. Ser. No. 15/192,420 to Duellman et al., “THIENOPYRROLE COMPOUNDS AND USES THEREOF,” filed Jun. 24, 2016), was added to the cells to inhibit extracellular bioluminescent activity.
(§2) HEK293 cells were maintained in DMEM containing 100 IU/ml penicillin, 100 μg/ml streptomycin, and 10% fetal calf serum at 37° C. in 5% CO2. Dulbecco's modified eagle medium (DMEM), Opti-MEM, Penicillin/Streptomycin, and Trypsin-EDTA are purchased from Life Technologies (Carlsbad). Fetal calf serum (FBS) is purchased from HyClone (GE Healthcare). Microtiter plates were purchased from Corning.
(§3) HEK293 cells were transiently transfected with two different integral membrane NanoLuc fusion proteins: 1) NanoLuc:KDR, presenting NanoLuc on the cell surface; 2) KDR:NanoLuc, presenting NanoLuc in the interior of the cell. After 24 hours, transfected cells were collected, resuspended in OptiM at 200,000 cell/ml and plated into wells of white, 96-well plates at 100 μL/well. For luminescent measurements, cells were treated with the indicated substrates at a final concentration of 10 μM or 20 μM in the presence or absence of 20 μM cell impermeable NanoLuc inhibitor JRW-0344. The luminescent signal was analyzed 3 minutes after substrate addition using a GLOMAX® Discover multimode detection plate reader (Promega).

KDR:NanoLuc = assay: Cell-based luciferase assay, HEK293 cells expressing KDR:NanoLuc (NanoLuc in the interior of the cell), ± extracellular inhibitor JRW-0344; details: HEK293 expressing KDR:Nluc; 10 μM substrate ± 20 μM JRW-0344; FIG. 2C
Procedure: as §1, §2, §3

Sequence of purified NANOLUC® Luciferase (Q9GV45 28-196 with tags or gaps with the stated changes limits assumed): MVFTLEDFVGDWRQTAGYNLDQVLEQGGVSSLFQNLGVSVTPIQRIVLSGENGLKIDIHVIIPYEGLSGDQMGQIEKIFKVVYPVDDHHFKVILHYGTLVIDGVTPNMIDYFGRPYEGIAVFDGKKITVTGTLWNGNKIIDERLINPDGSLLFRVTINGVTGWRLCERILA

SMILES	RLU at 100 uM [1]	Difference in RLU's in the presence and absence of the extracellular inhibitor (NanoLuc:KDR)	RLU and effect of the extracellular inhibitor (KDR:NanoLuc)
O=c1c(Cc2ccc(OCCCCCCS(=O)(=O)OCC(Cl)(Cl)Cl)c(Cl)c2)nc2c(Cc3ccccc3)[nH]c(-c3ccccc3)cn1-2 [JRW-0665, 2,2,2-trichloroethyl 6-(4-((8-benzyl-3-oxo-6-phenyl-3,7-dihydroimidazo[1,2-a]pyrazin-2-yl)methyl)-2-chlorophenoxy)hexane-1-sulfonate]	0.0055		
CC(C)(C)OC(=O)CCCCCOc1cccc(Cc2nc3c(Cc4ccccc4)[nH]c(-c4ccccc4)cn-3c2=O)c1 [JRW-0682, tert-butyl 6-(3-((8-benzyl-3-oxo-6-phenyl-3,7-dihydroimidazo[1,2-a]pyrazin-2-yl)methyl)phenoxy)hexanoate]	0.0024		
O=C(O)CCCCCOc1cccc(Cc2nc3c(Cc4ccccc4)[nH]c(-c4ccccc4)cn-3c2=O)c1 [JRW-0684, 6-(3-((8-benzyl-3-oxo-6-phenyl-3,7-dihydroimidazo[1,2-a]pyrazin-2-yl)methyl)phenoxy)hexanoic acid]	0.0057	Small differences in RLU's	not affected by the extracellular inhibitor
O=c1c(Cc2cccc(OCCCCCCBr)c2)nc2c(Cc3ccccc3)[nH]c(-c3ccccc3)cn1-2 [JRW-0692, 8-benzyl-2-(3-((6-bromohexyl)oxy)benzyl)-6-phenylimidazo[1,2-a]pyrazin-3(7H)-one]	0.0025		
O=c1c(Cc2cccc(OCCCS(=O)(=O)[O-])c2)nc2c(Cc3ccccc3)[nH]c(-c3ccccc3)cn1-2.[Na+] [JRW-0713, sodium 3-(3-((8-benzyl-3-oxo-6-phenyl-3,7-dihydroimidazo[1,2-a]pyrazin-2-yl)methyl)phenoxy)propane-1-sulfonate]	0.00081		
CC(C)(C)OC(=O)CCCOc1cccc(Cc2nc3c(Cc4ccccc4)[nH]c(-c4ccccc4)cn-3c2=O)c1 [JRW-0714, tert-butyl 4-(3-((8-benzyl-3-oxo-6-phenyl-3,7-dihydroimidazo[1,2-a]pyrazin-2-yl)methyl)phenoxy)butanoate]	0.0013		
O=C(O)CCCOc1cccc(Cc2nc3c(Cc4ccccc4)[nH]c(-c4ccccc4)cn-3c2=O)c1 [JRW-0716, 4-(3-((8-benzyl-3-oxo-6-phenyl-3,7-dihydroimidazo[1,2-a]pyrazin-2-yl)methyl)phenoxy)butanoic acid]	0.0022		
CC(C)(C)OC(=O)CCCCCCCOc1cccc(Cc2nc3c(Cc4ccccc4)[nH]c(-c4ccccc4)cn-3c2=O)c1 [JRW-0719, tert-butyl 8-(3-((8-benzyl-3-oxo-6-phenyl-3,7-dihydroimidazo[1,2-a]pyrazin-2-yl)methyl)phenoxy)octanoate]	0.0011		
O=c1c(Cc2ccc(OCCCCCCBr)c(Cl)c2)nc2c(Cc3ccccc3)[nH]c(-c3ccccc3)cn1-2 [JRW-0720, 8-benzyl-2-(4-((6-bromohexyl)oxy)-3-chlorobenzyl)-6-phenylimidazo[1,2-a]pyrazin-3(7H)-one]	0.0085	Small differences in RLU's	not affected by the extracellular inhibitor
O=C(O)CCCCCCCOc1cccc(Cc2nc3c(Cc4ccccc4)[nH]c(-c4ccccc4)cn-3c2=O)c1 [JRW-0722, 8-(3-((8-benzyl-3-oxo-6-phenyl-3,7-dihydroimidazo[1,2-a]pyrazin-2-yl)methyl)phenoxy)octanoic acid]	0.023		
CC(C)(C)OC(=O)CCCCCOc1ccc(Cc2nc3c(Cc4ccccc4)[nH]c(-c4ccccc4)cn-3c2=O)cc1Cl [JRW-0725, tert-butyl 6-(4-((8-benzyl-3-oxo-6-phenyl-3,7-dihydroimidazo[1,2-a]pyrazin-2-yl)methyl)-2-chlorophenoxy)hexanoate]	0.013		
CC(=O)N[C@@H](CC(=O)O)C(=O)N[C@@H](CC(=O)O)C(=O)N[C@@H](CC(=O)O)C(=O)NCCCCCCOc1cccc(Cc2nc3c(Cc4ccccc4)[nH]c(-c4ccccc4)cn-3c2=O)c1 [JRW-0741, (S)-3-acetamido-4-(((S)-1-(((S)-1-((6-(3-((8-benzyl-3-oxo-6-phenyl-3,7-dihydroimidazo[1,2-a]pyrazin-2-yl)methyl)phenoxy)hexyl)amino)-3-carboxy-1-oxopropan-2-yl)amino)-3-carboxy-1-oxopropan-2-yl)amino)-4-oxobutanoic acid]	0.0057		
CC(C)(C)OC(=O)c1cccc(-c2cn3c(=O)c(Cc4ccco4)nc-3c(Cc3ccccc3)[nH]2)c1 [JRW-0755, tert-butyl 3-(8-benzyl-2-(furan-2-ylmethyl)-3-oxo-3,7-dihydroimidazo[1,2-a]pyrazin-6-yl)benzoate]	0.000043		
O=c1c(Cc2ccc(OCCCCCCCCS(=O)(=O)[O-])c(Cl)c2)nc2c(Cc3ccccc3)[nH]c(-c3ccccc3)cn1-2.[Na+] [JRW-0761, sodium 8-(4-((8-benzyl-3-oxo-6-phenyl-3,7-dihydroimidazo[1,2-a]pyrazin-2-yl)methyl)-2-chlorophenoxy)octane-1-sulfonate]	0.075		
O=c1c(Cc2ccc(OCCCCCCCCCCS(=O)(=O)[O-])c(Cl)c2)nc2c(Cc3ccccc3)[nH]c(-c3ccccc3)cn1-2.[Na+] [JRW-0765, sodium 10-(4-((8-benzyl-3-oxo-6-phenyl-3,7-dihydroimidazo[1,2-a]pyrazin-2-yl)methyl)-2-chlorophenoxy)decane-1-sulfonate]	0.011		
O=c1c(Cc2ccc(Cl)c(OCCCCCCS(=O)(=O)[O-])c2)nc2c(Cc3ccccc3)[nH]c(-c3ccccc3)cn1-2.[Na+] [JRW-0766, sodium 6-(5-((8-benzyl-3-oxo-6-phenyl-3,7-dihydroimidazo[1,2-a]pyrazin-2-yl)methyl)-2-chlorophenoxy)hexane-1-sulfonate]	0.015		
O=c1c(Cc2cc(F)c(OCCCCCCS(=O)(=O)[O-])c(F)c2)nc2c(Cc3ccccc3)[nH]c(-c3ccccc3)cn1-2.[Na+] [JRW-0771, sodium 6-(4-((8-benzyl-3-oxo-6-phenyl-3,7-dihydroimidazo[1,2-a]pyrazin-2-yl)methyl)-2,6-difluorophenoxy)hexane-1-sulfonate]	0.15		
O=C(O)c1ccc(-c2cn3c(=O)c(Cc4ccco4)nc-3c(Cc3ccccc3)[nH]2)cc1 [JRW-0790, 4-(8-benzyl-2-(furan-2-ylmethyl)-3-oxo-3,7-dihydroimidazo[1,2-a]pyrazin-6-yl)benzoic acid]	0.0029		
NCCCCCCOc1ccc(Cc2nc3c(Cc4ccccc4)[nH]c(-c4ccccc4)cn-3c2=O)cc1F [JRW-0801, 2-(4-((6-aminohexyl)oxy)-3-fluorobenzyl)-8-benzyl-6-phenylimidazo[1,2-a]pyrazin-3(7H)-one]	0.0073		
O=c1c(Cc2ccc(OCCCCCCS(=O)(=O)O)c(Cl)c2)nc2c(Cc3ccccc3)[nH]c(-c3cccc(O)c3)cn1-2 [JRW-0805, 6-(4-((8-benzyl-6-(3-hydroxyphenyl)-3-oxo-3,7-dihydroimidazo[1,2-a]pyrazin-2-yl)methyl)-2-chlorophenoxy)hexane-1-sulfonic acid]	0.17		
CC(=O)N[C@@H](CC(=O)O)C(=O)N[C@@H](CC(=O)O)C(=O)N[C@@H](CC(=O)O)C(=O)NCCCCCCOc1ccc(Cc2nc3c(Cc4ccccc4)[nH]c(-c4ccccc4)cn-3c2=O)cc1F [JRW-0806, (S)-3-acetamido-4-(((S)-1-(((S)-1-((6-(4-((8-benzyl-3-oxo-6-phenyl-3,7-dihydroimidazo[1,2-a]pyrazin-2-yl)methyl)-2-fluorophenoxy)hexyl)amino)-3-carboxy-1-oxopropan-2-yl)amino)-3-carboxy-1-oxopropan-2-yl)amino)-4-oxobutanoic acid]	0.021		
NCCCCCCOc1cccc(Cc2nc3c(Cc4ccccc4)[nH]c(-c4ccccc4)cn-3c2=O)c1 [TAK-0039, 2-(3-((6-aminohexyl)oxy)benzyl)-8-benzyl-6-phenylimidazo[1,2-a]pyrazin-3(7H)-one]	0.0077	Small differences in RLU's	not affected by the extracellular inhibitor
